# Reference: ChEMBL document CHEMBL3616391, “Fatty Acid Synthase (FASN) Inhibitors as Potential Treatment for Cancer, Obesity, and Liver Related Disorders” (ACS Med Chem Lett, 2015)
# Tests used:
# A2780 [1] = test: Antiproliferative activity against human A2780 cells in lipid reduced medium in absence of palmitate; assay type: functional, cell-based
# A2780 [2] = test: Antiproliferative activity against human A2780 cells in lipid reduced medium in presence of palmitate; assay type: functional, cell-based
# Fatty acid synthase = Fatty acid synthase (Homo sapiens, UniProt P49327); test: Inhibition of fatty acid synthase keto-reductase domain (unknown origin)
# Chain of Fatty acid synthase (P49327 whole entry, the tested form may be a part): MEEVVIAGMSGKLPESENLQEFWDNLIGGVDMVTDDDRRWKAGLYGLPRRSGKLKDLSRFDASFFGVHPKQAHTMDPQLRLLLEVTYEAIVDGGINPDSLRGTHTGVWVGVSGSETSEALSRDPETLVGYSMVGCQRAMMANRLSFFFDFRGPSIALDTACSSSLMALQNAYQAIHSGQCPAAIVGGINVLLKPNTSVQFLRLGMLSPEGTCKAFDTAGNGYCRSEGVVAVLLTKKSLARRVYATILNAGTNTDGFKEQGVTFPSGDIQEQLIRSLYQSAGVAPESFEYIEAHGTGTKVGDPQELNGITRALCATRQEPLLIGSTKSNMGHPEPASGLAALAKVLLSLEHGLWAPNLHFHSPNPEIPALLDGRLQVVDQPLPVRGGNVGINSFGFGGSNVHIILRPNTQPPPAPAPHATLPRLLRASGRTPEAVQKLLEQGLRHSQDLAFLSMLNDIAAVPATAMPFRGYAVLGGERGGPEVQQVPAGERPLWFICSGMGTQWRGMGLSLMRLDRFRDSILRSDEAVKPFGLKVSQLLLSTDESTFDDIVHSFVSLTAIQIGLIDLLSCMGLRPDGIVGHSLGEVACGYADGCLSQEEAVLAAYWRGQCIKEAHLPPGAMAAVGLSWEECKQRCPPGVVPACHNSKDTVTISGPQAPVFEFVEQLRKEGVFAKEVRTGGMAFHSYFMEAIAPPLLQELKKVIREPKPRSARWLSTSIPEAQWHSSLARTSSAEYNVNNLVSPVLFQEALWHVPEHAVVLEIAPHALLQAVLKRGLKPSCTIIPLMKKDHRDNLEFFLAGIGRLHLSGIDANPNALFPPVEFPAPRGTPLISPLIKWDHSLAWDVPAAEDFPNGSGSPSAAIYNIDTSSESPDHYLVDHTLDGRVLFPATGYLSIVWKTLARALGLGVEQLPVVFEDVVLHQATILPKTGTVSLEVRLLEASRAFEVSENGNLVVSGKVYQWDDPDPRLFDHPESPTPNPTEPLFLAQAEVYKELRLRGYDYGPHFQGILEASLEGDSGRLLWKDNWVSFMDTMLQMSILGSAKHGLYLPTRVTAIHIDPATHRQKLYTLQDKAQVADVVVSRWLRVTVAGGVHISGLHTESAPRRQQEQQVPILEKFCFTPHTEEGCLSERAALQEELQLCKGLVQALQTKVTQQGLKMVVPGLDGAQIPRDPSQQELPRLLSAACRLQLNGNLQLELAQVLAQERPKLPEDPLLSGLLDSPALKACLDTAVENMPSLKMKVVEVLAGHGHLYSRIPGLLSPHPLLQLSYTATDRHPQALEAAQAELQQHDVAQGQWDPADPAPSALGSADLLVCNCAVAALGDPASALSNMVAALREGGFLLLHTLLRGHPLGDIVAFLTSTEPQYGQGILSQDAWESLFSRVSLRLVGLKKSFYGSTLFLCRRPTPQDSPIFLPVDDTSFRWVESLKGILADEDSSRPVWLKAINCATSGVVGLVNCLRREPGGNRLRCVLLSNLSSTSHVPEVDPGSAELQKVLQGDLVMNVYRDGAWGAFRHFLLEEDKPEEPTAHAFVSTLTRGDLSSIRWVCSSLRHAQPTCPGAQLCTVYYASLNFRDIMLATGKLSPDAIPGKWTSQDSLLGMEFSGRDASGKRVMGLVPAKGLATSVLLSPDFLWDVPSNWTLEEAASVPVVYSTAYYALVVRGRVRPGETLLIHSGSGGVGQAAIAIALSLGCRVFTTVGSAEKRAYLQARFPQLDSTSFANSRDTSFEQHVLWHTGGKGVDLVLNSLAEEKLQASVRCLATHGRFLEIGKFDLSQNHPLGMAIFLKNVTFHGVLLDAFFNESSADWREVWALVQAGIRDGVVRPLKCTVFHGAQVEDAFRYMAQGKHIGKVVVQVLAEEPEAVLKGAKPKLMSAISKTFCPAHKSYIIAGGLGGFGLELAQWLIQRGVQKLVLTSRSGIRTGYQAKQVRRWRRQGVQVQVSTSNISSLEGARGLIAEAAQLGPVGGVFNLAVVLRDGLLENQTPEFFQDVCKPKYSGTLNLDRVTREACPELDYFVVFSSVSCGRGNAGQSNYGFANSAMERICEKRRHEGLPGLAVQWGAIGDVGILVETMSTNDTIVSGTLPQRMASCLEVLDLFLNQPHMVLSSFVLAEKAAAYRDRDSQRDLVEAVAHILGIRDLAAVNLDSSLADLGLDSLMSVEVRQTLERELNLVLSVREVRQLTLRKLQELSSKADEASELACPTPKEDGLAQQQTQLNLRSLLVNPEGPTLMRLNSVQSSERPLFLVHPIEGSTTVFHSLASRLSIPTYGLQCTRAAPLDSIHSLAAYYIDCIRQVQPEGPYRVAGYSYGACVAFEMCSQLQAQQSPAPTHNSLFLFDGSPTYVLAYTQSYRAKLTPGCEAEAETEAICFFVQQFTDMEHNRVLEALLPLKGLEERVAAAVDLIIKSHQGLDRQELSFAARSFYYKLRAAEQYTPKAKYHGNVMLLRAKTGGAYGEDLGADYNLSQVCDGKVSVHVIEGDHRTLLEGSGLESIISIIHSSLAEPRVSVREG
# LNCaP = test: Antiproliferative activity against human LNCAP cells in lipid reduced medium; assay type: functional, cell-based
# PC-3M = test: Antiproliferative activity against human PC3M cells expressing Luc-C6 in lipid reduced medium; assay type: functional, cell-based
SMILES,IC50 (A2780 [1]) [nM],IC50 (A2780 [2]) [nM],IC50 (Fatty acid synthase) [nM],IC50 (LNCaP) [nM],IC50 (PC-3M) [nM]
CC1(C)N=C(c2ccc(-c3ccc4[nH]ccc4c3)cc2)N(C[C@@H]2CCN(C(=O)C3CC3)C2)C1=O,74.1,> 10000,–,–,–
CC1(C)N=C(c2ccc(-c3ccc4cccnc4c3)cc2)N(C[C@@H]2CCN(C(=O)C3CC3)C2)C1=O,75.9,> 10000,56.2,219,53.7
CC1(C)N=C(c2ccc(-c3ccc4cccc(F)c4c3)cc2)N(CC2CN(C(=O)C3CC3)C2)C1=O,468,5620,–,2040,–
Cn1ncc2cc(-c3ccc(C4=NC(C)(C)C(=O)N4C[C@@H]4CCN(C(=O)C5CC5)C4)c(F)c3)ccc21,–,–,–,724,132
CC1(C)N=C(c2ccc(-c3nc4ccccc4[nH]3)cc2)N(C[C@@H]2CCN(C(=O)C3CC3)C2)C1=O,9330,> 10000,–,–,–
Cn1cc(-c2ccc(-c3ccc(C4=NC(C)(C)C(=O)N4C[C@@H]4CCN(C(=O)C5(O)CC5)C4)c(F)c3)cc2)cn1,5.37,> 10000,–,–,–
